Reference: PubChem BioAssay (NCI)
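Where inhibition never reached the appropriate level, the endpoint shown equals the highest concentration tested. Otherwise, values were interpolated linearly from a five-concentration, 48-hour dose response in 96-well plates. GI50 = concentration required for 50% inhibition of growth. TGI is the concentration that stops growth completely.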

Legend:
Experiment in all cases: DTP human tumour cell line panel, 48 h
786-0 renal = system: 786-0 renal
A498 renal = system: A498 renal
A549 NSCLC = system: A549 NSCLC
ACHN renal = system: ACHN renal
BT-549 breast = system: BT-549 breast
CAKI-1 renal = system: CAKI-1 renal
CCRF-CEM leukemia = system: CCRF-CEM leukemia
COLO 205 colon = system: COLO 205 colon
DU-145 prostate = system: DU-145 prostate
EKVX NSCLC = system: EKVX NSCLC
HCC-2998 colon = system: HCC-2998 colon
HCT-116 colon = system: HCT-116 colon
HCT-15 colon = system: HCT-15 colon
HL-60(TB) leukemia = system: HL-60(TB) leukemia
HOP-62 NSCLC = system: HOP-62 NSCLC
HOP-92 NSCLC = system: HOP-92 NSCLC
HS 578T breast = system: HS 578T breast
HT29 colon = system: HT29 colon
IGROV1 ovarian = system: IGROV1 ovarian
K-562 leukemia = system: K-562 leukemia
KM12 colon = system: KM12 colon
LOX IMVI melanoma = system: LOX IMVI melanoma
M14 melanoma = system: M14 melanoma
MALME-3M melanoma = system: MALME-3M melanoma
MCF7 breast = system: MCF7 breast
MDA-MB-231 breast = system: MDA-MB-231 breast
MDA-MB-435 = system: MDA-MB-435
MOLT-4 leukemia = system: MOLT-4 leukemia
NCI-H226 lung = system: NCI-H226 lung
NCI-H23 lung = system: NCI-H23 lung
NCI-H460 lung = system: NCI-H460 lung
NCI-H522 lung = system: NCI-H522 lung
NCI/ADR-RES ovarian = system: NCI/ADR-RES ovarian
OVCAR-3 ovarian = system: OVCAR-3 ovarian
OVCAR-4 ovarian = system: OVCAR-4 ovarian
OVCAR-5 ovarian = system: OVCAR-5 ovarian
OVCAR-8 ovarian = system: OVCAR-8 ovarian
PC-3 prostate = system: PC-3 prostate
RXF 393 renal = system: RXF 393 renal
SF-268 CNS = system: SF-268 CNS
SF-295 CNS = system: SF-295 CNS
SF-539 CNS = system: SF-539 CNS
SK-MEL-2 melanoma = system: SK-MEL-2 melanoma
SK-MEL-28 melanoma = system: SK-MEL-28 melanoma
SK-MEL-5 melanoma = system: SK-MEL-5 melanoma
SK-OV-3 ovarian = system: SK-OV-3 ovarian
SN12C renal = system: SN12C renal
SNB-19 CNS = system: SNB-19 CNS
SR leukemia = system: SR leukemia
SW-620 colon = system: SW-620 colon
T-47D breast = system: T-47D breast
TK-10 renal = system: TK-10 renal
U251 CNS = system: U251 CNS
UACC-257 melanoma = system: UACC-257 melanoma
UACC-62 melanoma = system: UACC-62 melanoma
UO-31 renal = system: UO-31 renal

Compound: COC(=O)c1ccc(-c2nc3cc(F)c(F)cc3nc2C#N)cc1
- GI50 (786-0 renal): 26.4 µM
- TGI (786-0 renal): 50 µM
- GI50 (A498 renal): 14.4 µM
- TGI (A498 renal): 23.9 µM
- GI50 (A549 NSCLC): 10.8 µM
- TGI (A549 NSCLC): 25.6 µM
- GI50 (ACHN renal): 11.5 µM
- TGI (ACHN renal): 26.3 µM
- GI50 (BT-549 breast): 8.24 µM
- TGI (BT-549 breast): 16.6 µM
- GI50 (CAKI-1 renal): 8.48 µM
- TGI (CAKI-1 renal): 18.5 µM
- GI50 (CCRF-CEM leukemia): 2.27 µM
- TGI (CCRF-CEM leukemia): 18.7 µM
- GI50 (COLO 205 colon): 13 µM
- TGI (COLO 205 colon): 33.2 µM
- GI50 (DU-145 prostate): 8.7 µM
- TGI (DU-145 prostate): 17.3 µM
- GI50 (EKVX NSCLC): 9.89 µM
- TGI (EKVX NSCLC): 19.5 µM
- GI50 (HCC-2998 colon): 8.41 µM
- TGI (HCC-2998 colon): 16.1 µM
- GI50 (HCT-116 colon): 7.84 µM
- TGI (HCT-116 colon): 14.6 µM
- GI50 (HCT-15 colon): 1.59 µM
- TGI (HCT-15 colon): 6.47 µM
- GI50 (HL-60(TB) leukemia): 3.23 µM
- TGI (HL-60(TB) leukemia): 9.51 µM
- GI50 (HOP-62 NSCLC): 9.9 µM
- TGI (HOP-62 NSCLC): 18 µM
- GI50 (HOP-92 NSCLC): 9.8 µM
- TGI (HOP-92 NSCLC): 21.1 µM
- GI50 (HS 578T breast): 1.57 µM
- TGI (HS 578T breast): 4.79 µM
- GI50 (HT29 colon): 11.1 µM
- TGI (HT29 colon): 35.6 µM
- GI50 (IGROV1 ovarian): 9.62 µM
- TGI (IGROV1 ovarian): 20.4 µM
- GI50 (K-562 leukemia): 1.9 µM
- TGI (K-562 leukemia): 16.3 µM
- GI50 (KM12 colon): 31.4 µM
- TGI (KM12 colon): 50 µM
- GI50 (LOX IMVI melanoma): 0.948 µM
- TGI (LOX IMVI melanoma): 1.79 µM
- GI50 (M14 melanoma): 8.28 µM
- TGI (M14 melanoma): 18.9 µM
- GI50 (MALME-3M melanoma): 7.64 µM
- TGI (MALME-3M melanoma): 16.5 µM
- GI50 (MCF7 breast): 8.86 µM
- TGI (MCF7 breast): 23.6 µM
- GI50 (MDA-MB-231 breast): 1.57 µM
- TGI (MDA-MB-231 breast): 6.87 µM
- GI50 (MDA-MB-435): 8.21 µM
- TGI (MDA-MB-435): 16.4 µM
- GI50 (MOLT-4 leukemia): 3.27 µM
- TGI (MOLT-4 leukemia): 12.3 µM
- GI50 (NCI-H226 lung): 9.39 µM
- TGI (NCI-H226 lung): 21.4 µM
- GI50 (NCI-H23 lung): 9.12 µM
- TGI (NCI-H23 lung): 17 µM
- GI50 (NCI-H460 lung): 9.86 µM
- TGI (NCI-H460 lung): 19.2 µM
- GI50 (NCI-H522 lung): 6.36 µM
- TGI (NCI-H522 lung): 35.4 µM
- GI50 (NCI/ADR-RES ovarian): 4.21 µM
- TGI (NCI/ADR-RES ovarian): 10.4 µM
- GI50 (OVCAR-3 ovarian): 1.71 µM
- TGI (OVCAR-3 ovarian): 4.99 µM
- GI50 (OVCAR-4 ovarian): 4.71 µM
- TGI (OVCAR-4 ovarian): 32.3 µM
- GI50 (OVCAR-5 ovarian): 12.1 µM
- TGI (OVCAR-5 ovarian): 32.6 µM
- GI50 (OVCAR-8 ovarian): 4.65 µM
- TGI (OVCAR-8 ovarian): 13 µM
- GI50 (PC-3 prostate): 11.7 µM
- TGI (PC-3 prostate): 26.6 µM
- GI50 (RXF 393 renal): 8.53 µM
- TGI (RXF 393 renal): 17.6 µM
- GI50 (SF-268 CNS): 1.5 µM
- TGI (SF-268 CNS): 4.64 µM
- GI50 (SF-295 CNS): 7.26 µM
- TGI (SF-295 CNS): 15.5 µM
- GI50 (SF-539 CNS): 10.7 µM
- TGI (SF-539 CNS): 18.7 µM
- GI50 (SK-MEL-2 melanoma): 14.9 µM
- TGI (SK-MEL-2 melanoma): 46.7 µM
- GI50 (SK-MEL-28 melanoma): 9.58 µM
- TGI (SK-MEL-28 melanoma): 33.9 µM
- GI50 (SK-MEL-5 melanoma): 6.87 µM
- TGI (SK-MEL-5 melanoma): 13.7 µM
- GI50 (SK-OV-3 ovarian): 9.77 µM
- TGI (SK-OV-3 ovarian): 17.2 µM
- GI50 (SN12C renal): 1.66 µM
- TGI (SN12C renal): 4.9 µM
- GI50 (SNB-19 CNS): 9.35 µM
- TGI (SNB-19 CNS): 17 µM
- GI50 (SR leukemia): 1.25 µM
- TGI (SR leukemia): 2.77 µM
- GI50 (SW-620 colon): 4.66 µM
- TGI (SW-620 colon): 16.8 µM
- GI50 (T-47D breast): 12.8 µM
- TGI (T-47D breast): 32 µM
- GI50 (TK-10 renal): 17.4 µM
- TGI (TK-10 renal): 42.2 µM
- GI50 (U251 CNS): 10.1 µM
- TGI (U251 CNS): 21.4 µM
- GI50 (UACC-257 melanoma): 10.2 µM
- TGI (UACC-257 melanoma): 18.8 µM
- GI50 (UACC-62 melanoma): 2.66 µM
- TGI (UACC-62 melanoma): 5.83 µM
- GI50 (UO-31 renal): 11.2 µM
- TGI (UO-31 renal): 33.5 µM
